# Data published in the NIST ThermoML archive (doi:10.1016/j.jct.2008.09.012).
# ± gives the expanded uncertainty stated by the source.
# Test: molar enthalpy of vaporization or sublimation
# Settings: 298.15 K; Liquid; Calvet microcalorimetry
row,SMILES,molar enthalpy [kcal/mol]
1,COc1cccc(F)c1 [3-fluoroanisole],11.5 ± 0.526
2,COc1ccccc1F [2-fluoroanisole],12.5 ± 0.526
3,COc1ccc(F)cc1 [1-fluoro-4-methoxybenzene],11.6 ± 0.526
